Active and inactive are the calls of the source.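 Rule for the calls: active = growth down by 35% or more in duplicate, reached at no more than twice the top tested dose; inactive = growth raised instead, and the rest.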
Test system: not listed separately
Test: Pseudomonas aeruginosa growth inhibition with EDDHA – absorbance, plate reader, cherry-picks, dose response (AID 602389)
Settings: P. aeruginosa growth with EDDHA, OD600, 24-30 h; at 50 µM (top of the series)

| SMILES | growth change, negative = inhibition |
| --- | --- |
| COc1ccc(/C=C/C(=O)c2ccoc2)cc1 | 4.86% (inactive) |
| CCOc1ccc(-n2cccc2C=O)cc1 | 1.21% (inactive) |
| O=S1(=O)CCOC[C@H](c2ccccc2)N1Cc1cccc(Cl)c1 | 7.06% (inactive) |
| O=C(/C=C/c1cccs1)c1cc(Cl)ccc1O | 18.9% (inactive) |
| N#CCn1c(C2CCCCC2)nc2ccccc2c1=O | 17.3% (inactive) |
| Cn1cccc1C(=O)OCc1cc(-c2ccco2)on1 | 6.86% (inactive) |
| Cc1cccc(NC(=O)c2ccc3c(c2)OCCO3)n1 | 2.6% (inactive) |
| O=C(c1cccc([N+](=O)[O-])c1)N1CC2C3C=CC(C3)C2C1 (stereo not drawn) | 5.48% (inactive) |
| Nc1ccc(OCc2ccccc2)cc1[N+](=O)[O-] | 3.9% (inactive) |
| COc1ccc(-c2cc3ncccc3cn2)cc1 | 7% (inactive) |
| CCNC(=O)COc1ccc2ccccc2c1 | 3.07% (inactive) |
| Cc1cc(NC(=O)c2cc([N+](=O)[O-])ccc2Cl)no1 | 24.8% (inactive) |
| Cn1cccc1C(C#N)c1cccc(F)c1C#N (stereo not drawn) | 7.38% (inactive) |
| COC(=O)c1ccc(OC(=O)c2cccs2)cc1 | 6.21% (inactive) |
| O=CNC1(c2ccccc2)CCCCC1 | -5.85% (inactive) |
| COC(=O)c1ccc(NC(=S)N2CCCC2)cc1 | 12% (inactive) |
| O=C(NC1CCCC1)c1cc(Cl)ccc1[N+](=O)[O-] | 7.04% (inactive) |
| O=C(NC1CCCCCCC1)c1cccc(Cl)c1 | -14.2% (inactive) |
| O=CC1=C(c2ccccc2)Oc2ccccc2O1 | -4.48% (inactive) |
| Clc1ccc2scc(CN3CCCCC3)c2c1 | -3.92% (inactive) |
| COC(=O)c1ccc(OC(=O)c2ccco2)cc1 | -12.9% (inactive) |
| O=[N+]([O-])c1ccc(N2CCCCC2)cc1 | 8.85% (inactive) |
| CCOC(=O)c1ccc(-c2ccc(C=O)o2)cc1 | 7.58% (inactive) |

| SMILES | growth change, negative = inhibition |
| --- | --- |
| CCOc1ccc(CNC2CCCc3ccccc32)cc1 (stereo not drawn) | 20.8% (inactive) |
| O=C(Nc1ncc([N+](=O)[O-])s1)c1cccc([N+](=O)[O-])c1 | -9.89% (inactive) |
| N#CC(c1ccc(Cl)nn1)c1ccc(Cl)cc1Cl (stereo not drawn) | -0.745% (inactive) |
| Cc1ccc(O)c(C(=O)/C=C/c2ccc3c(c2)OCCO3)c1 | 19.8% (inactive) |
| Cc1ccc(C(C#N)c2ccc(Cl)nn2)cc1 (stereo not drawn) | -0.103% (inactive) |
| O=C1N[C@@H](Cc2ccccc2)[C@@H](c2ccco2)O1 | 16.2% (inactive) |
| CC(C)N=C(NC#N)SCc1ccccc1F | -1.36% (inactive) |
| Cc1cc(C)nc(N(C#N)Cc2cccc([N+](=O)[O-])c2)n1 | 12.9% (inactive) |
| N#C/C(=C/c1ccco1)c1nc2ccccc2s1 | 18.7% (inactive) |
| O=C1C2C(C(=O)N1Cc1ccco1)C1C=CC2C12CC2 (stereo not drawn) | 2.46% (inactive) |
| Cc1cc(NC(=O)c2cc([N+](=O)[O-])cc([N+](=O)[O-])c2C)no1 | 5.73% (inactive) |
| N#CC(c1ccc(Cl)cc1)c1ncc(C(F)(F)F)cc1Cl (stereo not drawn) | -14% (inactive) |
| CC(C)(C)NC(=O)c1cc(Cl)ccc1[N+](=O)[O-] | 12.1% (inactive) |
| N#CC(c1ccccc1)c1cccc(Cl)n1 (stereo not drawn) | -11.7% (inactive) |
| Cc1ccc(S(=O)(=O)NCCC(C)C)cc1[N+](=O)[O-] | 1.56% (inactive) |
| Clc1cccc(CNCCCSc2ncccn2)c1 | -7.39% (inactive) |
| CSc1nnc(-c2ccc([N+](=O)[O-])cc2)o1 | -9.96% (inactive) |
| N#CC(c1ccc(Cl)nn1)c1c(F)cccc1Cl (stereo not drawn) | 15% (inactive) |
| COc1ccc(CNCc2cccc(Cl)c2)cc1 | 4.12% (inactive) |
| O=CN(c1ccccc1)c1ccc2ccccc2c1 | -5.6% (inactive) |
| CN(Cc1ccccc1)c1ncnc2ccc(Br)cc12 | 9.04% (inactive) |
| CCCCCC1CC(COc2ccccc2)OC1=O (stereo not drawn) | -10.5% (inactive) |
| O=C1C2C3C=CC(C4CC34)C2C(=O)N1Cc1ccco1 (stereo not drawn) | 43.3% (inactive) |

| SMILES | growth change, negative = inhibition |
| --- | --- |
| O=C1C=C(c2cccc(Cl)c2)C[C@@H](c2ccc(F)cc2)C1 | 17.4% (inactive) |
| CCOC(=O)CC(C#N)c1cn(C)c2ccccc12 (stereo not drawn) | -0.14% (inactive) |
| O=C(NCC1CC1)c1cc([N+](=O)[O-])cc([N+](=O)[O-])c1 | 7.47% (inactive) |
| COC(=O)c1ccc(/C=C(\C#N)c2ccccn2)cc1 | 9.37% (inactive) |
| CC(C)CCNC(=O)c1cccc(Cl)c1 | -12.3% (inactive) |
| CCCNS(=O)(=O)c1ccc(OC)c(Cl)c1Cl | -7.21% (inactive) |
| COc1ccccc1C(C#N)c1cccc(Cl)n1 (stereo not drawn) | 5.02% (inactive) |
| CCOC(=O)c1cc2c(s1)-c1c(C)cccc1OC2 | 6.54% (inactive) |
| CCOC(=O)CCCn1ncn2c(cc3occc32)c1=O | -2.87% (inactive) |
| Cc1ccc2scc(CN3CCCC3)c2c1 | -6.73% (inactive) |
| O=[N+]([O-])c1ccc(-c2cccnc2)cc1 | -3.69% (inactive) |
| N#CC(c1ccc(Cl)nn1)c1ccccc1Cl (stereo not drawn) | -4.43% (inactive) |
| COc1ccc(C(C#N)c2ccc(Cl)nn2)cc1 (stereo not drawn) | -3.93% (inactive) |
| COc1ccc(N=C(C)C2=C(O)CSC2=O)cc1 | 15.6% (inactive) |
| N#Cc1cc([N+](=O)[O-])ccc1N1CCCC1 | -11.4% (inactive) |
| Cc1ccc2nc(-c3ccc4c(c3)OCCO4)cn2c1 | 3.5% (inactive) |
| Cc1ccc(S(=O)c2ccc(C)cc2)cc1 | 0.078% (inactive) |
| COc1ccc(/C(C#N)=C/c2cccnc2)cc1 | -1.53% (inactive) |
| CSC1=N/C(=C\C=C\c2cccs2)C(=O)S1 | 13.6% (inactive) |
| CCOC(=O)c1ccc(N2Cc3ccccc3C2=N)cc1 | -6.69% (inactive) |
| OC(c1cccc(Cl)c1)c1nccc2ccccc12 (stereo not drawn) | -6.69% (inactive) |
| COc1ccc(N2CCN(C(=O)c3ccc(Br)o3)CC2)cc1 | -4.3% (inactive) |
| CCOC1=CC(=O)OC(c2ccccc2)C1 (stereo not drawn) | 3.24% (inactive) |

| SMILES | growth change, negative = inhibition |
| --- | --- |
| N#CC(c1ccc(Cl)cc1)c1ccc(Cl)nn1 (stereo not drawn) | -4.67% (inactive) |
| Cc1ccc(C)c(S(=O)(=O)NC2CCSC2=O)c1 (stereo not drawn) | -4.84% (inactive) |
| COC(=O)c1cc(-c2ccc(OC)cc2)on1 | -7.05% (inactive) |
| CCC(C)NS(=O)(=O)c1ccc(OC)c(Cl)c1Cl (stereo not drawn) | -10.7% (inactive) |
| Clc1ccc2scc(CN3CCCC3)c2c1 | -1.16% (inactive) |
| O=[N+]([O-])c1ccc(N2CCCC2)nc1 | 9.43% (inactive) |
| N#CC(c1cccc(Cl)c1)c1ncc(C(F)(F)F)cc1Cl (stereo not drawn) | 1.76% (inactive) |
| N#CC1C(C#N)C2CCC1C1C2N1c1ccccc1 (stereo not drawn) | -7.23% (inactive) |
| N#CC(Sc1ccccn1)c1ccc(Cl)cc1 (stereo not drawn) | 15.4% (inactive) |
| Cn1cccc1C(C#N)c1ccccc1C#N (stereo not drawn) | 9.31% (inactive) |
| O=C(NC1CCSC1)c1cccc(Cl)c1 (stereo not drawn) | 2.12% (inactive) |
| O=C(NC1CCCC1)c1cccc(Cl)c1 | 7.87% (inactive) |
| Cc1cccc(NC(=O)Nc2cc(C)on2)c1 | 2.69% (inactive) |
| O=C1C=C(c2cc(F)ccc2F)C[C@@H](c2ccc(F)cc2)C1 | -1.93% (inactive) |
| O=[N+]([O-])c1ccc(N2CCCCC2)nc1 | -2.09% (inactive) |
| CO/N=C/c1cn(-c2ccc(Cl)cc2)nn1 | -0.342% (inactive) |
| Cc1cc(NC(=O)c2c(F)c(F)c(F)c(F)c2F)no1 | 14.5% (inactive) |
| CCOC(=O)N1CCN(c2ccc(Cl)cc2)CC1 | -0.021% (inactive) |
| Cc1cc(S(=O)(=O)NCC2CC2)c(Cl)cc1Cl | 9.74% (inactive) |
| CCOC(=O)c1ccc(-c2ccc(CO)o2)cc1 | -6.54% (inactive) |
| CCOC(=O)c1cnc(-c2ccccc2)nc1N | -4.77% (inactive) |
| CCOC(=O)/C=C(\C)Sc1cc(=O)oc2ccccc12 | 19.4% (inactive) |

Test system: P. aeruginosa growth with EDDHA, OD600, 24-30 h
Test: as above
Settings: not given

| SMILES | AC35 |
| --- | --- |
| N#CC(c1ccc(Cl)cc1)c1cccc(Cl)n1 (stereo not drawn) | 41.2 µM |
| Cc1cc(C)nc(N(C#N)Cc2ccccc2)n1 | > 50 µM (inactive) |
| COC(=O)c1cc(-c2ccc(Br)cc2)on1 | 47 µM |
| c1ccn2cc(-c3ccc4c(c3)OCCO4)nc2c1 | > 50 µM (inactive) |
| Cc1cc(NC(=O)Nc2ccccc2[N+](=O)[O-])no1 | > 50 µM (inactive) |
| Cc1cccc(C(C#N)c2ccc(Cl)nn2)c1 (stereo not drawn) | > 50 µM (inactive) |
| O=C(NC1CCS(=O)(=O)C1)c1cccc(Br)c1 (stereo not drawn) | > 50 µM (inactive) |

Source: PubChem BioAssay AID602389 (Broad Institute, 2012)
